Several values for one entry are separate records, joined by “and”; a condition that tells them apart may be missing. Identical values can stand only once. Inconclusive results and toxic doses are left out.

The test relates to BDF1 mice, P388 leukemia ip, median survival T/C. The test is described as follows: NCI In Vivo Anticancer Drug Screen. Data for tumor model P388 Leukemia (intraperitoneal) in B6D2F1 (BDF1) mice. As to conditions: endpoint: median survival time, higher = longer survival. The method in brief:
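Read-out is survival of treated animals expressed relative to the vehicle group, as a T/C ratio.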

[1] abbreviates: dose: 200.0 mg/kg/injection, schedule: Q04DX003 (ip), vehicle: saline with Tween-80.
Where [2] appears, read: dose: 100.0 mg/kg/injection, schedule: Q04DX003 (ip), vehicle: Klucel (hydroxypropylcellulose) (HPC).
Where [3] appears, read: dose: 200.0 mg/kg/injection, schedule: Q04DX003 (ip), vehicle: Klucel (hydroxypropylcellulose) (HPC).
The mark [4] stands for this setting: dose: 50.0 mg/kg/injection, schedule: Q01DX009 (ip), vehicle: saline with Tween-80.
[5] abbreviates: dose: 100.0 mg/kg/injection, schedule: Q01DX009 (ip), vehicle: saline with Tween-80.
[6] abbreviates: dose: 200.0 mg/kg/injection, schedule: Q01DX009 (ip), vehicle: saline with Tween-80.
Where [7] appears, read: dose: 50.0 mg/kg/injection, schedule: Q01DX009 (ip), vehicle: saline.
[8] abbreviates: dose: 100.0 mg/kg/injection, schedule: Q01DX009 (ip), vehicle: saline.
Where [9] appears, read: dose: 6.25 mg/kg/injection, schedule: Q01DX009 (ip), vehicle: saline.
Setting [10] is: dose: 12.5 mg/kg/injection, schedule: Q01DX009 (ip), vehicle: saline.
Setting [11] is: dose: 25.0 mg/kg/injection, schedule: Q01DX009 (ip), vehicle: saline.
The mark [12] stands for this setting: dose: 50.0 mg/kg/injection, schedule: Q04DX003 (ip), vehicle: saline with Tween-80.
Setting [13] is: dose: 100.0 mg/kg/injection, schedule: Q04DX003 (ip), vehicle: saline with Tween-80.
Where [14] appears, read: dose: 25.0 mg/kg/injection, schedule: Q01DX009 (ip), vehicle: saline with Tween-80.
[15] abbreviates: dose: 400.0 mg/kg/injection, schedule: Q01DX009 (ip), vehicle: saline with Tween-80.

In the case of `CC1CC(C)(O)C2C3(C)CCCC2(COC3=O)C12CCC1(CCOC1=O)O2` (stereo unspecified), the T/C by setting is: (dose: 2.5 mg/kg/injection, schedule: Q01DX009 (ip), vehicle: Klucel (hydroxypropylcellulose) (HPC)) 88 % of control; (dose: 5.0 mg/kg/injection, schedule: Q01DX009 (ip), vehicle: Klucel (hydroxypropylcellulose) (HPC)) 106 % of control; (dose: 10.0 mg/kg/injection, schedule: Q01DX009 (ip), vehicle: Klucel (hydroxypropylcellulose) (HPC)) 95 % of control.
Regarding `Cc1ccc(C(SCC(N)C(=O)O)(c2ccccc2)c2ccccc2)cc1` (stereo unspecified), the T/C was 260 % of control (dose: 132.0 mg/kg/injection, schedule: Q04DX003 (ip), vehicle: saline with Tween-80); 260 % of control under setting [1]; 95 % of control (dose: 300.0 mg/kg/injection, schedule: Q04DX003 (ip), vehicle: saline with Tween-80).
Consider `CN1C=c2c3c(ccc2=C2C=CC4C=C5OCOC5=CC4=C21)OCO3` (stereo unspecified), for which the T/C reads like this: (dose: 5.0 mg/kg/injection, schedule: Q01DX010 (ip), vehicle: saline) 110 % of control; (dose: 6.25 mg/kg/injection, schedule: Q04DX003 (ip), vehicle: saline) 100 % of control; (dose: 10.0 mg/kg/injection, schedule: Q01DX010 (ip), vehicle: saline) 100 % of control; (dose: 12.5 mg/kg/injection, schedule: Q04DX003 (ip), vehicle: saline) 100 % of control; (dose: 20.0 mg/kg/injection, schedule: Q01DX010 (ip), vehicle: saline) 105 % of control; (dose: 25.0 mg/kg/injection, schedule: Q04DX003 (ip), vehicle: saline) 109 % of control.
As for `CCCC(=O)Nc1ccc(NS(C)(=O)=O)cc1OC`, the T/C is 95 % of control (dose: 100.0 mg/kg/injection, schedule: Q01DX009 (ip), vehicle: Klucel (hydroxypropylcellulose) (HPC)); 100 % of control under setting [2]; 90 % of control (dose: 200.0 mg/kg/injection, schedule: Q01DX009 (ip), vehicle: Klucel (hydroxypropylcellulose) (HPC)); 95 % of control under setting [3]; 90 % of control (dose: 400.0 mg/kg/injection, schedule: Q01DX009 (ip), vehicle: Klucel (hydroxypropylcellulose) (HPC)).
In the case of `NC1=NS(=O)(=O)N=C(N)C1=NNc1ccccc1`, the T/C under setting [4] was 92 % of control, the T/C under setting [5] was 99 % of control and the T/C under setting [6] was 103 % of control.
Take `COc1ccc2c(c1)C1(C)CCN(C)CC(C1)C2O` (stereo unspecified): the T/C was 96 % of control under setting [7]; 89 % of control under setting [8]; 92 % of control (dose: 200.0 mg/kg/injection, schedule: Q01DX009 (ip), vehicle: saline).
Regarding `CCCCCCCC(O)CCCCCCC`, the T/C is, setting by setting: (dose: 100.0 mg/kg/injection, schedule: Q01DX009 (ip), vehicle: other) 115 % of control; (dose: 200.0 mg/kg/injection, schedule: Q01DX009 (ip), vehicle: other) 110 % of control; (dose: 400.0 mg/kg/injection, schedule: Q01DX009 (ip), vehicle: other) 100 % of control.
For the compound `O=C(Nc1ccc(Cl)cc1)P(=O)(O)c1ccccc1`, the T/C is 98 % of control under setting [9]; 104 % of control under setting [10]; 98 % of control under setting [11]; 99 % of control under setting [7]; 100 % of control and 102 % of control under setting [8].
Take `C[N+](C)(C)CCCSC1=NCCN1`: the T/C under setting [9] was 106 % of control, the T/C under setting [10] is 107 % of control and the T/C under setting [11] is 103 % of control.
For `CCOP(=O)(OCC)ON1C(=O)c2cccc3cccc(c23)C1=O`, the T/C (dose: 0.78 mg/kg/injection, schedule: Q01DX009 (ip), vehicle: Klucel (hydroxypropylcellulose) (HPC)) was 97 % of control and the T/C (dose: 1.56 mg/kg/injection, schedule: Q01DX009 (ip), vehicle: Klucel (hydroxypropylcellulose) (HPC)) is 99 % of control.
For the compound `CCCN=C(N)c1ccc(NC(=O)c2ccc(C(=O)Nc3ccc(C(N)=NCCC)cc3)cc2)cc1`, the T/C is, setting by setting: (dose: 0.5 mg/kg/injection, schedule: Q04DX003 (ip), vehicle: saline with Tween-80) 115 % of control; (dose: 1.0 mg/kg/injection, schedule: Q04DX003 (ip), vehicle: saline with Tween-80) 120 % of control; (dose: 14.0 mg/kg/injection, schedule: Q04DX003 (ip), vehicle: saline with Tween-80) 163 % of control; (dose: 21.0 mg/kg/injection, schedule: Q04DX003 (ip), vehicle: saline with Tween-80) 163 % of control; (dose: 33.0 mg/kg/injection, schedule: Q04DX003 (ip), vehicle: saline with Tween-80) 159 % of control and 200 % of control; under setting [12], 172 % of control and 204 % of control. In addition, the T/C runs as follows: (dose: 75.0 mg/kg/injection, schedule: Q04DX003 (ip), vehicle: saline with Tween-80) 159 % of control; under setting [13], 190 % of control; under setting [1], 118 % of control.
`CCCCCCCCCCN1CCOCCOCCN(CCCCCCCCCC)CCOCCOCC1`: the T/C was 113 % of control (dose: 1.56 mg/kg/injection, schedule: Q01DX005 (ip), vehicle: saline with Tween-80); 103 % of control (dose: 3.13 mg/kg/injection, schedule: Q01DX005 (ip), vehicle: saline with Tween-80); 113 % of control (dose: 6.25 mg/kg/injection, schedule: Q01DX005 (ip), vehicle: saline with Tween-80).
Regarding `CCCCS(=O)/C=C\C(=O)NCCC` (stereo unspecified), the T/C under setting [14] is 100 % of control, the T/C under setting [4] is 99 % of control and the T/C under setting [5] is 100 % of control.
With `CCN(CC)S(=O)(=O)c1cccc(C(O)CC(O)(C(F)(F)F)C(F)(F)F)c1` (stereo unspecified), the T/C is, setting by setting: (dose: 100.0 mg/kg/injection, schedule: Q04DX003 (ip), vehicle: other) 95 % of control; (dose: 200.0 mg/kg/injection, schedule: Q04DX003 (ip), vehicle: other) 86 % of control; (dose: 400.0 mg/kg/injection, schedule: Q04DX003 (ip), vehicle: other) 90 % of control.
On to `CC(=O)O[C@]1(C(C)=O)CC[C@H]2[C@@H]3C[C@H](C)C4=CC(=O)C=C[C@]4(C)[C@@]3(F)[C@@H](O)C[C@@]21C`, for which the T/C is 100 % of control and 108 % of control (dose: 12.5 mg/kg/injection, schedule: Q01DX010 (sc), vehicle: steriod suspending solution); 100 % of control and 112 % of control (dose: 25.0 mg/kg/injection, schedule: Q01DX010 (sc), vehicle: steriod suspending solution); 95 % of control and 112 % of control (dose: 50.0 mg/kg/injection, schedule: Q01DX010 (sc), vehicle: steriod suspending solution); 91 % of control and 104 % of control (dose: 100.0 mg/kg/injection, schedule: Q01DX010 (sc), vehicle: steriod suspending solution).
For the compound `CCCCCCCCCCCCN=Cc1cc(Cc2ccc(O)c(C=NCCCCCCCCCCCC)c2)ccc1O`, the T/C was 106 % of control under setting [4], 106 % of control under setting [5] and 123 % of control under setting [6].
As to `CC(Sc1ncnc2nc[nH]c12)c1ccccc1` (stereo unspecified), the T/C (dose: 50.0 mg/kg/injection, schedule: Q04DX003 (ip), vehicle: Klucel (hydroxypropylcellulose) (HPC)) was 100 % of control; the T/C under setting [2] was 100 % of control; the T/C under setting [3] was 110 % of control.
On to `O=C1OC(c2ccccc2)=C/C1=C/c1ccccc1O`, for which the T/C is, setting by setting: under setting [14], 109 % of control; under setting [4], 91 % of control; under setting [12], 104 % of control; under setting [5], 97 % of control; under setting [13], 109 % of control; under setting [6], 97 % of control and 118 % of control. The T/C reads like this: under setting [1], 116 % of control; (dose: 300.0 mg/kg/injection, schedule: Q01DX009 (ip), vehicle: saline with Tween-80) 108 % of control; under setting [15], 113 % of control and 124 % of control; (dose: 400.0 mg/kg/injection, schedule: Q04DX003 (ip), vehicle: saline with Tween-80) 114 % of control; (dose: 500.0 mg/kg/injection, schedule: Q01DX009 (ip), vehicle: saline with Tween-80) 122 % of control.
Take `CC(OC(=O)Nc1ccccc1)C(=O)O` (stereo unspecified): the T/C runs as follows: under setting [5], 88 % of control; under setting [6], 92 % of control; under setting [15], 103 % of control.
As to `Cc1cccc(CSc2nc(N)nc3c2ncn3C2CC(O)C(CO)O2)n1` (stereo unspecified), the T/C is 92 % of control (dose: 100.0 mg/kg/injection, schedule: Q04DX003 (ip), vehicle: saline); 98 % of control (dose: 200.0 mg/kg/injection, schedule: Q04DX003 (ip), vehicle: saline); 104 % of control (dose: 400.0 mg/kg/injection, schedule: Q04DX003 (ip), vehicle: saline).

These data come from PubChem BioAssay AID328 (DTP/NCI, 2004).
